This is an account of results in patent US9512120B2, “Microbicidally active imidazopyridine derivatives” (Syngenta Participations AG, priority 2013, dated 2016).

Series [1] concerns Phaeosphaeria nodorum (Septoria nodorum). As to the kind of experiment: Phaeosphaeria nodorum (Septoria nodorum) / wheat / leaf disc preventative (glume blotch). The class given is in vivo. As to conditions: Parastagonospora nodorum, foliar, wheat leaf segments cv Kanzler, inoculated 2 days after application, assessed 5-7 days after application, read-out: control of Phaeosphaeria nodorum (percent disease control compared to untreated). As to the method:
Phaeosphaeria nodorum (Septoria nodorum)/Wheat/Leaf Disc Preventative (Glume Blotch): Wheat leaf segments cv Kanzler were placed on agar in a 24-well plate and sprayed with formulated test compound diluted in water at an application rate of 200 ppm. The leaf disks are inoculated with a spore suspension of the fungus 2 days after application. The inoculated test leaf disks are incubated at 20° C. and 75% relative humidity under a light regime of 12/12 h (light/dark) in a climate cabinet and the activity of a compound is assessed as percent disease control compared to untreated when an appropriate level of disease damage appears in untreated check leaf disks (5-7 days after application).

The subject of another series is Pyrenophora teres. The experiment in a line: Pyrenophora teres / barley / leaf disc preventative (net blotch). The series is classed as in vivo. As to conditions: foliar, barley leaf segments cv Hasso, inoculated two days after application, assessed 5-7 days after application, read-out: control of Pyrenophora teres (disease control compared to untreated). Summed up:
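Barley cv Hasso leaf segments on agar sprayed with compound at 200 ppm, inoculated with spores two days later. Kept at 20 °C, 65% RH, 12/12 h light; disease control versus untreated scored 5-7 days after application.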

In series [2] the test system is Botryotinia fuckeliana (Botrytis cinerea). The experiment in a line: Botryotinia fuckeliana (Botrytis cinerea) / liquid culture (gray mould). The class given is cell-based. As to conditions: Vogels broth, 24° C., 3-4 days after application, read-out: control of Botryotinia fuckeliana (inhibition of growth, photometric). The method, boiled down:
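Botrytis cinerea conidia in Vogels broth were added to test compound applied from DMSO at 200 ppm. Incubation at 24 °C; growth inhibition read photometrically 3-4 days after application.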

Series [3] has as its system Mycosphaerella graminicola (Septoria tritici). As to the kind of experiment: Mycosphaerella graminicola (Septoria tritici) / liquid culture (Septoria blotch). The class given is cell-based. The conditions noted are these: Zymoseptoria tritici, PDB, 24° C., 4-5 days after application, read-out: control of Mycosphaerella graminicola (inhibition of growth, photometric). Summed up:
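Cryo-stored conidia in potato dextrose broth were added to compound in DMSO at 200 ppm in microtiter plates. Plates were incubated at 24 °C and growth inhibition was measured photometrically 4–5 days after application.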

The subject of another series is Gaeumannomyces graminis. The experiment in a line: Gaeumannomyces graminis / liquid culture (take-all of cereals). The class given is cell-based. As to conditions: PDB, 24° C., 4-5 days after application, read-out: control of Gaeumannomyces graminis (inhibition of growth, photometric). As to the method: Gaeumannomyces graminis/Liquid Culture (Take-all of Cereals): Mycelial fragments of the fungus from cryogenic storage were directly mixed into nutrient broth (PDB potato dextrose broth). After placing a DMSO solution of test compound into a 96-well microtiter plate at an application rate of 200 ppm, the nutrient broth […], containing the fungal spores is added. The test plates were incubated at 24° C. and the inhibition of growth was determined photometrically 4-5 days after application.

Series [4] has as its system Thanatephorus cucumeris (Rhizoctonia solani). As to the kind of experiment: Thanatephorus cucumeris (Rhizoctonia solani) / liquid culture (foot rot, damping-off). The class given is cell-based. As to conditions: PDB, 24° C., 3-4 days after application, read-out: control of Thanatephorus cucumeris (inhibition of growth, photometric). Summed up: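 Mycelial fragments in potato dextrose broth exposed to test compounds at 200 ppm (from DMSO solution), incubated at 24° C. Growth inhibition read photometrically 3-4 days after application.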

A further series relates to Sclerotinia sclerotiorum. As to the kind of experiment: Sclerotinia sclerotiorum liquid culture (cottony rot / white mold). The series is classed as cell-based. The conditions noted are these: PDB, 24° C., 3-4 days after application, read-out: control of Sclerotinia sclerotiorum (inhibition of growth, photometric). The method, then:
Sclerotinia sclerotiorum (Cottony Rot/White Mold): Mycelia fragments of a newly grown liquid culture of the fungus were directly mixed into nutrient broth (PDB potato dextrose broth). After placing a (DMSO) solution of test compound into a microtiter plate (96-well format) the nutrient broth containing the fungal material was added. The test plates are incubated at 24° C. and the inhibition of growth was determined photometrically 3-4 days after application.

For series [5], the system named is Puccinia recondita f. sp. Tritici. As to the kind of experiment: Puccinia recondita f. sp. tritici / wheat / leaf disc preventative (brown rust). The series is classed as in vivo. As to conditions: foliar, wheat leaf segments cv Kanzler, inoculated 1 day after application, assessed 7-9 days after application, read-out: control of Puccinia recondita f. sp. Tritici (percent disease control compared to untreated). Summed up: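 Leaf segments of wheat cv Kanzler on agar were sprayed with formulated compound at 200 ppm and inoculated with spores 1 day later. Incubation was at 19° C, 75% relative humidity and 12/12 h light/dark. Activity was scored 7-9 days after application as percent disease control versus untreated.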

In series [6] the test system is Mycosphaerella arachidis (Cercospora arachidicola). The experiment in a line: Mycosphaerella arachidis (Cercospora arachidicola) / liquid culture (early leaf spot). The class given is cell-based. The conditions noted are these: PDB, 24° C., 4-5 days after application, read-out: control of Mycosphaerella arachidis (inhibition of growth, photometric). As to the method: Mycosphaerella Arachidis (Cercospora arachidicola)/Liquid Culture (Early Leaf Spot): Conidia of the fungus from cryogenic storage were directly mixed into nutrient broth (PDB potato dextrose broth). After placing a DMSO solution of test compound into a 96-well microtiter plate at an application rate of 200 ppm, the nutrient broth containing the fungal spores was added. The test plates are incubated at 24° C. and the inhibition of growth was determined photometrically 4-5 days after application.

Series [7] relates to Glomerella lagenarium (Colletotrichum lagenarium). As to the kind of experiment: Glomerella lagenarium (Colletotrichum lagenarium) / liquid culture (anthracnose). The class given is cell-based. The conditions noted are these: Colletotrichum orbiculare, PDB, 24° C., 3-4 days after application, read-out: control of Glomerella lagenarium (inhibition of growth, photometric). The method, then: Glomerella lagenarium (Colletotrichum lagenarium)/Liquid Culture (Anthracnose): Conidia of the fungus from cryogenic storage were directly mixed into nutrient broth (PDB potato dextrose broth). After placing a DMSO solution of test compound into a 96-well microtiter plate at an application rate of 200 ppm, the nutrient broth containing the fungal spores was added. The test plates were incubated at 24° C. and the inhibition of growth is measured photometrically 3-4 days after application.

Series [8] relates to Monographella nivalis (Microdochium nivale). As to the kind of experiment: Monographella nivalis (Microdochium nivale) / liquid culture (foot rot cereals). The series is classed as cell-based. The conditions noted are these: PDB, 24° C., 4-5 days after application, read-out: control of Monographella nivalis (inhibition of growth, photometric). As to the method:
Monographella nivalis (Microdochium nivale)/Liquid Culture (Foot Rot Cereals): Conidia of the fungus from cryogenic storage were directly mixed into nutrient broth (PDB potato dextrose broth). After placing a DMSO solution of test compound into a 96-well microtiter plate at an application rate of 200 ppm, the nutrient broth containing the fungal spores was added. The test plates were incubated at 24° C. and the inhibition of growth was determined photometrically 4-5 days after application.

Molecules are shown by their SMILES. Some results are limits rather than exact numbers.

As for `CCn1c(-n2ncnc2N)nc2cncc(-c3cc4ccccc4nc3F)c21` [Compound 66, 2-[1-ethyl-7-(2-fluoroquinolin-3-yl)imidazo[4,5-c]pyridin-2-yl]-1,2,4-triazol-3-amine], the pest or weed control at 200 ppm (in series [1]; in the series with Pyrenophora teres) was at least 80% in each case. The inhibition at 20 ppm (in [2]; in series [3]; in the series with Gaeumannomyces graminis; in series [4]; in the series on Sclerotinia sclerotiorum) was at least 80% throughout.
Turning to `CCCC=Cc1cncc2nc(-n3ncnc3N)n(CC)c12` [Compound 68, 2-(1-ethyl-7-pent-1-enylimidazo[4,5-c]pyridin-2-yl)-1,2,4-triazol-3-amine], the pest or weed control at 200 ppm (in [5]; in series [1]; in the series on Pyrenophora teres) was at least 80% each time. Also, the inhibition at 20 ppm (in series [2]; in [6]; in series [3]; in the series with Gaeumannomyces graminis; in [4]; with Sclerotinia sclerotiorum) was at least 80% in each case.
Turning to `CCn1c(-n2ncnc2N)nc2cncc(-c3ccccc3C)c21` [Compound 72, 2-[1-ethyl-7-(2-methylphenyl)imidazo[4,5-c]pyridin-2-yl]-1,2,4-triazol-3-amine], the pest or weed control at 200 ppm (in [5]; in series [1]; with Pyrenophora teres) was at least 80% in each case. For the same molecule, the inhibition at 20 ppm in series [2], in series [6], in [3] and in series [4] was at least 80% each time.
For the molecule `CCn1c(-n2ncnc2N)nc2cncc(-c3cc(Cl)ccc3F)c21` [Compound 91, 2-[7-(5-chloro-2-fluorophenyl)-1-ethylimidazo[4,5-c]pyridin-2-yl]-1,2,4-triazol-3-amine], the pest or weed control at 200 ppm (in series [5]; with Pyrenophora teres) was at least 80% each time. Besides, the inhibition at 20 ppm (in series [2]; in series [7]; in series [3]; with Gaeumannomyces graminis; in [4]; in series [8]) was at least 80% in each case. For the same molecule, the inhibition (as a rule, how much of the control response was suppressed) at 20 ppm in the series with Sclerotinia sclerotiorum was at least 80%.
Take `CCn1c(-n2ncnc2N)nc2cncc(-c3ccc(OC)cc3Cl)c21` [Compound 94, 2-[7-(2-chloro-4-methoxyphenyl)-1-ethylimidazo[4,5-c]pyridin-2-yl]-1,2,4-triazol-3-amine]: the pest or weed control at 200 ppm (in series [5]; in series [1]; in the series on Pyrenophora teres) was at least 80% in each case. Also, the inhibition at 20 ppm (in series [2]; in [7]; in [3]; in the series on Gaeumannomyces graminis; in series [4]; in series [8]) was at least 80% each time. Also, the inhibition at 20 ppm in the series on Sclerotinia sclerotiorum was at least 80%.
Turning to `CCn1c(-n2ncnc2N)nc2cncc(-c3ccc(C(F)(F)F)cc3Cl)c21` [Compound 97], the pest or weed control at 200 ppm (in series [5]; in the series on Pyrenophora teres) was at least 80% throughout. Moreover, the inhibition at 20 ppm (in series [2]; in [7]; in [3]; with Gaeumannomyces graminis; in series [4]; in series [8]) was at least 80% each time. For the same molecule, the inhibition at 20 ppm with Sclerotinia sclerotiorum was at least 80%.
Consider `CCCON=C(C)c1cncc2nc(-n3ncnc3N)n(CC)c12` [Compound 143], for which the pest or weed control at 200 ppm (in series [5]; in series [1]; in the series with Pyrenophora teres) was at least 80% each time. For the same molecule, the inhibition at 20 ppm (in [2]; in series [7]; in series [3]; in [4]; in the series on Sclerotinia sclerotiorum) was at least 80% in each case.
Take `C=C(Cl)CO/N=C(\C)c1cncc2nc(-n3ncnc3N)n(CC)c12` [Compound 152]: the pest or weed control at 200 ppm in the series with Pyrenophora teres was at least 80%. The inhibition at 20 ppm in series [7], in series [6], in series [3] and in series [4] was at least 80% throughout.
On to `CCn1c(-n2ncnc2N)nc2cncc(/C(C)=N/OC/C=C\Cl)c21` [Compound 171], for which the pest or weed control at 200 ppm (in series [1]; in the series with Pyrenophora teres) was at least 80% each time. Besides, the inhibition at 20 ppm (in series [2]; in series [7]; in [3]; in the series on Gaeumannomyces graminis; in series [4]; in series [8]) was at least 80% in each case. Also, the inhibition at 20 ppm in the series on Sclerotinia sclerotiorum is at least 80%.
Take `CCCn1c(-n2ncnc2N)nc2cncc(/C(C)=N\OCC=C(C)C)c21` [Compound 188]: the pest or weed control at 200 ppm (in series [5]; in series [1]; in the series on Pyrenophora teres) was at least 80% each time. For the same molecule, the inhibition at 20 ppm (in series [2]; in series [3]; in the series on Gaeumannomyces graminis; in series [4]; in [8]; in the series on Sclerotinia sclerotiorum) was at least 80% each time.
Turning to `Nc1nc(-c2ccccc2)nn1-c1nc2cnccc2n1C1CCCCC1` [Example P1, 2-(1-cyclohexylimidazo[4,5-c]pyridin-2-yl)-5-phenyl-1,2,4-triazol-3-amine], the melting point (usually the temperature, or range, at which the solid turns liquid) is 222 to 225 °C.
Still for that read-out and setting: under `CCn1c(-n2ncnc2N)nc2c(Cl)ncc(-c3ccccc3C)c21` [Example P7, 2-[4-chloro-1-ethyl-7-(o-tolyl)imidazo[4,5-c]pyridin-2-yl]-1,2,4-triazol-3-amine] stands 274 to 278 °C; under `CCn1c(-n2ncnc2N)nc2cncc(C(C)O)c21` (stereo not shown) [Example P8, 1-[2-(5-amino-1,2,4-triazol-1-yl)-1-ethyl-imidazo[4,5-c]pyridin-7-yl]ethanol], 220 to 226 °C.
